Assay results reported in patent publication US8143403B2 (Bristol-Myers Squibb Company, priority 2008, dated 2012).
Marks after values point to notes of the source that are not given here. No end group written: not given here.

What was measured:
[1] = test system: i.v. hαCGRP-induced increase in middle meningeal artery diameter and facial blood flow; assay: Validation of facial blood flow as surrogate for intracranial artery dilation in the rat; type: in vivo; details: pretreatment, n=5 rats
[2] = test system: CGRP-induced increase in laser Doppler facial blood flow; assay: Inhibition of CGRP-induced increase in laser Doppler facial blood flow in non-human primate; type: in vivo, common marmoset (Callithrix jacchus)
Experimental: FIG. 4. […] Data are peak % change from baseline±sem, with each animal serving as its own control.
Saturation/Scatchard Analysis. […] Saturation data were analyzed using a one site binding equation to estimate apparent equilibrium dissociation constant (Kd) and the maximum number of binding sites (Bmax) (Prizm v4.0, Graphpad). […] Functional Antagonism/Schild analysis. Agonist stimulation of CGRP receptor complex leads to cyclic AMP (adenosine 3′5′-cyclic monophosphate) production via Gs-dependent activation of an adenylate cyclase (Juaneda C et al., TiPS, 2000; 21:432-438). Consequently, CGRP receptor antagonists inhibit CGRP-induced cyclic AMP formation in SK-N-MC cells which natively express the CGRP receptor complex (Doods H et al., Br J Pharmacol, 2000; 129(3):420-423). […] A Schild analysis format was used, which allowed investigation of the mechanism of antagonism. […] Various concentrations of CGRP were added and the cells were allowed to incubate 30 min at room temperature. The cells were lysed with lysis reagent and cAMP concentrations were determined by HTRF according to the manufacturer's instructions. A standard curve using known quantities of cAMP was evaluated in parallel to allow conversion of HTRF ratio to nM cAMP. The resulting curves were then evaluated using a Gaddum/Schild equation individually and with global fitting (Prizm v4.0, Graphpad). […] To obtain a global fit the following parameters were shared (top, bottom, logEC50, Hill slope and pA2) and all curves were fit simultaneously. […] Non-Terminal Method for Assessing In Vivo Efficacy of Small Molecule CGRP-Receptor Antagonists in Mammals Overview. […] Non-human primates (e.g., marmosets) are the only animals known to have human-like CGRP receptor pharmacology conferred by the presence of the specific amino acid residue (Trp74) in their RAMP1 sequence which is responsible for the phenotype of the human receptor (Mallee et al. J Biol Chem 2002 277:14294). Since current migraine models primarily use rats (Escott et al. Brain Res 1995 669:93; Williamson et al. Cephalalgia 1997 17:525), or are invasive, terminal procedures in primates (Doods et al. Br J Pharmacol 2000 129:420), a novel non-invasive, survival model in non-human primates for in vivo efficacy assessment of CGRP-receptor antagonists was developed. […] Peptide and small-molecule CGRP-receptor antagonists were used to validate the non-human primate model. […] Animals. Adult male and female common marmosets (Callithrix jacchus) purchased from Harlan and weighing 350-550 g served as subjects. Anesthesia & Surgical Preparation. Animals are anesthetized by isoflurane inhalation in an induction chamber (4-5% rapid induction, maintained with 1-2.5%; Solomon et al., 1999).

haCGRP(8-37): peptide antagonist, peptide fragment CGRP(8-37) (VTHRLAGLLSRSGGVVKNNFVPTNVGSKAF; ends and bridges not checked; UniProt P06881 90-119, looked up, fragment) [reference compound]
inhibition of i.v. hαCGRP-induced increase in facial blood flow [1]: 50% | inhibition of i.v. hαCGRP-induced increase in middle meningeal artery diameter [1]: 50% | % Inhibition ([2]; 1 mg/kg i.v., pretreat 0 min, 15 min, hαCGRP 10 μg/kg i.v.): 87.2* % | inhibition of i.v. CGRP-stimulated increases in primate facial blood flow ([2]; pre-treatment): dose-dependently inhibited
